What was measured:
Assay type in all cases: physicochemical
[1] = Hygroscopicity study of crystal forms (dynamic vapour sorption, 25° C.); conditions: for Crystal form after hygroscopicity test: two cycles
Source text: According to the “9103 Guideline for Hygroscopicity for Pharmaceuticals” in Part IV of the 2015 edition of the Chinese Pharmacopoeia, descriptions of hygroscopic characteristics and definitions of hygroscopic weight gain are as follows; • Deliquescent: Absorbs sufficient moisture to form a liquid; • Extremely hygroscopic: Hygroscopic weight gain is no less than 15%; • Hygroscopic: Hygroscopic weight gain is less than 15% but no less than 2%; • Slightly hygroscopic: Hygroscopic weight gain is less than 2% but no less than 0.2%; • Non-hygroscopic or nearly non-hygroscopic: Hygroscopic weight gain is less than 0.2%.
Compound of Formula (I) (Oct. 15, 2021, Nanjing) 03881 Using the Surface Measurement Systems advantage 2, at a temperature of 25° C., and starting at a humidity of 50%, the humidity range was examined from […] to 95%, with increments of 10%. The criterion for evaluation was that the mass change dM/dT at each gradient was less than 0.002%, TMAX was 360 min, and the process was cycled twice.

[2] = Influencing factor stability of crystal forms (light, high temperature, high humidity, 30 days); conditions: for change in purity under 60° C. and light: 60° C. and light (4500 Lux); for change in purity under 60° C. and light / physicochemical stability under high humidity: open; for physicochemical stability under high humidity: high humidity conditions of 75% and 92.5%; for crystal form after influencing factor experiments: light, high temperature, high humidity
Description: Each crystal form was spread out in an open exposure setup, and the stability of the samples under conditions of light (4500 Lux), high temperature (40° C., 60° C.), and high humidity (RH 75 RH 92.5%) was examined separately. The sampling inspection period was 30 days.

[3] = Long-term/accelerated stability of crystal forms (25° C. 60% RH and 40° C. 75% RH); conditions: for physical and chemical stability, long-term accelerated conditions: 25° C. 60% RH and 40° C. 75% RH, six months
Description: The crystal forms D, E, Q, and U of the compound of formula (I) were respectively placed under conditions of 25° C. with 60% RH and 40° C. with 75% RH to evaluate their stability.

[4] = 92.5% RH, 30 days, open exposure
[5] = light 4500 Lux, 30 days, open exposure

With N#Cc1ccc(N2CCC(Sc3ccc(COc4cccc5c4CN([C@H]4CCC(=O)NC4=O)C5=O)cn3)CC2)c(F)c1 [Crystal form E, (S)-4-(4-((5-(((2-(2,6-dioxopiperidin-3-yl)-1-oxoisoindolin-4-yl)oxy)methyl)pyridin-2-yl)thio)piperidin-1-yl)-3-fluorobenzonitrile] the “Hygroscopic weight change 0.0% RH-95.0% RH” value [1] was 2.24%, the “Hygroscopic weight change 20% RH-80% RH” value [1] was 0.84% and the “Hygroscopicity class (20% RH-80% RH)” value [1] was “(slightly hygroscopic)”. The “Crystal form after hygroscopicity test” value [1] was “Untransformed”, the Color and character ([2]; 40° C., 9 days, open exposure) was “White solid” and the Purity % ([2]; 40° C., 9 days, open exposure, listed as Free crystal form E) was 97.4%. For the same compound, the Color and character ([2]; 40° C., 15 days, open exposure) was “White solid”, the Purity % ([2]; 40° C., 15 days, open exposure, listed as Free crystal form E) was 97.0% and the Color and character ([2]; 40° C., 30 days, open exposure) was “White solid”. The Purity % ([2]; 40° C., 30 days, open exposure, listed as Free crystal form E) was 96.4%, the “change in purity under 60° C. and light” value ([2]; 30 days) was “slight decrease in purity” and the Color and character ([2]; 60° C., 9 days, open exposure) was “White solid”. For the same compound, the Purity % ([2]; 60° C., 9 days, open exposure, listed as Free crystal form E) was 96.7%, the Color and character ([2]; 60° C., 15 days, open exposure) was “White solid” and the Purity % ([2]; 60° C., 15 days, open exposure, listed as Free crystal form E) was 95.9%. The Color and character ([2]; 60° C., 30 days, open exposure) was “White solid”, the Purity % ([2]; 60° C., 30 days, open exposure, listed as Free crystal form E) was 94.6% and the Color and character ([2]; 75% RH, 9 days, open exposure) was “White solid”. The Purity % ([2]; 75% RH, 9 days, open exposure, listed as Free crystal form E) was 97.9%, the Color and character ([2]; 75% RH, 15 days, open exposure) was “White solid” and the Purity % ([2]; 75% RH, 15 days, open exposure, listed as Free crystal form E) was 97.9%. The Color and character ([2]; 75% RH, 30 days, open exposure) was “White solid”, the Purity % ([2]; 75% RH, 30 days, open exposure, listed as Free crystal form E) was 97.8% and the Color and character ([2]; 92.5% RH, 9 days, open exposure) was “White solid”. For the same compound, the Purity % ([2]; 92.5% RH, 9 days, open exposure, listed as Free crystal form E) was 97.9%, the Color and character ([2]; 92.5% RH, 15 days, open exposure) was “White solid” and the Purity % ([2]; 92.5% RH, 15 days, open exposure, listed as Free crystal form E) was 97.8%. For the same compound, the Color and character [2, 4] was “White solid”, the Purity % ([2]; 92.5% RH, 30 days, open exposure, listed as Free crystal form E) was 97.8% and the Color and character ([2]; Onset, 0 days) was “White solid”. The Purity % ([2]; Onset, 0 days, listed as Free crystal form E) was 97.9%, the “physicochemical stability under high humidity” value ([2]; 30 days) was “good physicochemical stability” and the Color and character ([2]; light 4500 Lux, 9 days, open exposure) was “White solid”. The Purity % ([2]; light 4500 Lux, 9 days, open exposure, listed as Free crystal form E) was 97.7%, the Color and character ([2]; light 4500 Lux, 15 days, open exposure) was “White solid” and the Purity % ([2]; light 4500 Lux, 15 days, open exposure, listed as Free crystal form E) was 97.4%. The Color and character [2, 5] was “White solid”, the Purity % ([2]; light 4500 Lux, 30 days, open exposure, listed as Free crystal form E) was 94.9% and the “crystal form after influencing factor experiments” value ([2]; 30 days) was “remain unchanged”. For the same compound, the “physical and chemical stability, long-term accelerated conditions” value [3] was “good physical and chemical stability”, the “Purity % 1 month” value ([3]; 25° C., 60% RH) was 97.9% and the “Purity % 2 months” value ([3]; 25° C., 60% RH) was 97.8%. The “Purity % 3 months” value ([3]; 25° C., 60% RH) was 97.8%, the “Purity % 1 month” value ([3]; 40° C., 75% RH) was 97.8% and the “Purity % 2 months” value ([3]; 40° C., 75% RH) was 97.8%. For the same compound, the “Purity % 3 months” value ([3]; 40° C., 75% RH) was 97.8%, the “Purity % 6 months” value ([3]; 40° C., 75% RH) was 97.4% and the “Purity % Onset” value [3] was 97.9%.

In the case of N#Cc1ccc(N2CCC(Sc3ccc(COc4cccc5c4CN([C@H]4CCC(=O)NC4=O)C5=O)cn3)CC2)c(F)c1 [Crystal form Q, (S)-4-(4-((5-(((2-(2,6-dioxopiperidin-3-yl)-1-oxoisoindolin-4-yl)oxy)methyl)pyridin-2-yl)thio)piperidin-1-yl)-3-fluorobenzonitrile], the “Hygroscopic weight change 0.0% RH-95.0% RH” value [1] is reported as 0.67%, the “Hygroscopic weight change 20% RH-80% RH” value [1] is reported as 0.24% and the “Hygroscopicity class (20% RH-80% RH)” value [1] is reported as “(slightly hygroscopic)”. For the same compound, the “Crystal form after hygroscopicity test” value [1] was “Untransformed”, the Color and character ([2]; 40° C., 7 days, open exposure) was “White solid” and the Purity % ([2]; 40° C., 7 days, open exposure) was 99.5%. For the same compound, the Color and character ([2]; 40° C., 14 days, open exposure) was “White solid”, the Purity % ([2]; 40° C., 14 days, open exposure, listed as Free crystal form Q) was 99.4% and the Color and character ([2]; 40° C., 30 days, open exposure) was “White solid”. For the same compound, the Purity % ([2]; 40° C., 30 days, open exposure, listed as Free crystal form Q) was 99.1%, the “change in purity under 60° C. and light” value ([2]; 30 days) was “slight decrease in purity” and the Color and character ([2]; 60° C., 7 days, open exposure) was “White solid”. The Purity % ([2]; 60° C., 7 days, open exposure, listed as Free crystal form Q) was 99.3%, the Color and character ([2]; 60° C., 14 days, open exposure) was “White solid” and the Purity % ([2]; 60° C., 14 days, open exposure, listed as Free crystal form Q) was 98.9%. For the same compound, the Color and character ([2]; 60° C., 30 days, open exposure) was “White solid”, the Purity % ([2]; 60° C., 30 days, open exposure, listed as Free crystal form Q) was 98.5% and the Color and character ([2]; 75% RH, 7 days, open exposure) was “White solid”. For the same compound, the Purity % ([2]; 75% RH, 7 days, open exposure) was 99.6%, the Color and character ([2]; 75% RH, 14 days, open exposure) was “White solid” and the Purity % ([2]; 75% RH, 14 days, open exposure, listed as Free crystal form Q) was 99.6%. The Color and character ([2]; 75% RH, 30 days, open exposure) was “White solid”, the Purity % ([2]; 75% RH, 30 days, open exposure, listed as Free crystal form Q) was 99.6% and the Color and character ([2]; 92.5% RH, 14 days, open exposure) was “White solid”. The Purity % ([2]; 92.5% RH, 14 days, open exposure, listed as Free crystal form Q) was 99.6%, the Color and character [2, 4] was “White solid” and the Purity % ([2]; 92.5% RH, 30 days, open exposure, listed as Free crystal form Q) was 99.5%. The Color and character ([2]; Onset, 0 days) was “White solid”, the Purity % ([2]; Onset, 0 days, listed as Free crystal form Q) was 99.6% and the “physicochemical stability under high humidity” value ([2]; 30 days) was “good physicochemical stability”. The Color and character ([2]; light 4500 Lux, 7 days, open exposure) was “White solid”, the Purity % ([2]; light 4500 Lux, 7 days, open exposure, listed as Free crystal form Q) was 99.5% and the Color and character ([2]; light 4500 Lux, 14 days, open exposure) was “White solid”. The Purity % ([2]; light 4500 Lux, 14 days, open exposure, listed as Free crystal form Q) was 98.8%, the Color and character [2, 5] was “White solid” and the Purity % ([2]; light 4500 Lux, 30 days, open exposure, listed as Free crystal form Q) was 93.9%. The “crystal form after influencing factor experiments” value ([2]; 30 days) was “remain unchanged”, the “physical and chemical stability, long-term accelerated conditions” value [3] was “good physical and chemical stability” and the “Purity % 1 month” value ([3]; 25° C., 60% RH) was 99.5%. The “Purity % 2 months” value ([3]; 25° C., 60% RH) was 99.5%, the “Purity % 3 months” value ([3]; 25° C., 60% RH) was 99.5% and the “Purity % 1 month” value ([3]; 40° C., 75% RH) was 99.5%. The “Purity % 2 months” value ([3]; 40° C., 75% RH) was 99.4%, the “Purity % 3 months” value ([3]; 40° C., 75% RH) was 99.4% and the “Purity % 6 months” value ([3]; 40° C., 75% RH) was 99.1%. The “Purity % Onset” value [3] was 99.6%.

Reference: patent US20250154126A1, “CRYSTALLINE FORM OF SULFUR-CONTAINING ISOINDOLINE DERIVATIVE” (JIANGSU HENGRUI PHARMACEUTICALS CO., LTD., priority 2022, published 2025)
